Patent US9949976B2, “Kinase inhibitor and use thereof” (Sihuan Pharmaceutical Holdings Group Ltd., priority 2013, dated 2018)

Tests used:
[1] = system: liver cancer PDX model; assay: In vivo pharmacodynamics, liver cancer PDX model; set-up: species or system female NU/NU nude mouse; conditions: 200 mg/kg PO QD 21 days
Experimental: Tumor tissues were harvested from tumor-bearing mice of liver cancer PDX model, cut into pieces with diameter of […] and seeded subcutaneously to back of female NU/NU nude mouse. When the tumors' average volume reached 100-300 mm^3, the animals were grouped and administered with a drug. Compound 1 was orally administrated once a day at an amount of 200 mg/kg, for 21 days. The volume of the drug for administration is 0.1 mL/10 g according to animal's body weight.
Tumor volume was measured with vernier calipers twice a week by measuring the major diameter and the minor diameter. The tumor volume is calculated by the following formula: volume=0.5×(major diameter)×(minor diameter)^2. The relative tumor volume (RTV) and the proliferation ratio (T/C) were calculated according to the result of measurement. RTV=Vt/V0, wherein Vt is the average tumor volume on the t day after grouping, and V0 is the average tumor volume on the day of grouping. T/C (%)=RTV of treatment group/RTV of solvent control group×100%.
One-way ANOVA was used for analysing the group statistical analysis of tumor volumes. p<0.05 was regarded as having significant difference.

[2] = target: CDK6/D3 (Homo sapiens, UniProt Q00534); assay: In vitro enzyme-inhibiting activity, Caliper Mobility Shift method; type: biochemical; conditions: read-out: CDK enzyme-inhibiting activity IC50 CDK6/D3
CDK6/D3, sequence (Q00534 whole entry): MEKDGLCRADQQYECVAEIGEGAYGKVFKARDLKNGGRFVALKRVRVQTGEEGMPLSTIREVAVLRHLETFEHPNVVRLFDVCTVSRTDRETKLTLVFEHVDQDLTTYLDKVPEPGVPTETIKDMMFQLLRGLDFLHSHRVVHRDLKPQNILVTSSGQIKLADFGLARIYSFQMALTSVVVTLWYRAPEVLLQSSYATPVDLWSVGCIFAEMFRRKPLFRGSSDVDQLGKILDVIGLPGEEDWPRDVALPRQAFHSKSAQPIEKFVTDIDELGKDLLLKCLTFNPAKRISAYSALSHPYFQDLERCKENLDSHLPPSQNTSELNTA
CDK6/D3, sequence (P30281 whole entry partner): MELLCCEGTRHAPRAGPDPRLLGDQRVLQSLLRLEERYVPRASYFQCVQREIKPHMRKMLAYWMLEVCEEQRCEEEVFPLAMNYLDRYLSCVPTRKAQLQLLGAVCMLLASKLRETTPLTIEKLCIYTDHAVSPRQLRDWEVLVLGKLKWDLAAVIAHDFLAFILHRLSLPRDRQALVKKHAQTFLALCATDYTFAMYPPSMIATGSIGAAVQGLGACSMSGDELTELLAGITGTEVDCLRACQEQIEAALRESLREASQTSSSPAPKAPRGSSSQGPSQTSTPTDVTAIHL
Experimental: Measurement of activity for inhibiting CDK4/6 kinase by Caliper Mobility Shift method.
50 mL stock solution containing 1000 mM HEPES (pH 7.5), and 50 μL stock solution containing 30% Brij-35, were added to 949.95 mL ultra pure water, and the resultant mixture was mixed homogeneously.
25 mL stock solution containing 4% Coating Reagent #3 (provided with the 12-sipper chip used in Caliper device), 50 mL stock solution containing 1000 mM HEPES (pH 7.5), 50 mL stock solution containing 0.5 M EDTA, and 0.25 mL stock solution containing 30% Brij-35, were added to 374.75 mL ultra pure water, and the resultant mixture was mixed homogeneously.
18 μL CDK6/D3 enzyme solution, and 14 μL stock solution containing 1M DTT were added to 2768 μL 1-fold CDK6 kinase buffer, and the resultant mixture was mixed homogeneously.
23 μL stock solution containing 100 mM ATP, 75 μL stock solution containing 1M MgCl2, and 75 μL FAM-tagged polypeptide 8, were added to 2827 μL 1-fold CDK6 kinase buffer, and the resultant mixture was mixed homogeneously.
DMSO solution containing 10 mM test compound was diluted with DMSO to a solution containing 50 μM test compound (which was used as a stock solution).
1) 5 μL 5-fold test compound solution and 10 μL 2.5-fold kinase solution were added to the corresponding wells in a 384-well plate, and incubated at room temperature for 10 min.
2) To the corresponding wells, 10 μL 2.5-fold polypeptide solution was added to start the enzymatic reaction, and incubation was performed at 28° C. for 5 h.
To the corresponding wells, 25 μL stop solution was added to stop the reaction.
The data was read by Caliper device, the inhibition rate was calculated by the following formula, and curve fitting was carried out by GraphPad5.0 software to get IC50 value. Inhibition rate=(maximal value−sample value)/(maximal value−minimal value)×100, wherein, maximal value: positive control without addition of test compound; minimal value: negative control without addition of enzyme.

[3] = system: Capan-1 human pancreatic cancer cell; assay: In vivo pharmacodynamics, subcutaneous Capan-1 pancreatic cancer xenograft model; set-up: species or system female BALB/c nude mouse; conditions: Capan-1 xenograft, 100 mg/kg PO QD 21 days
Experimental: Culture medium of Capan-1 pancreatic cancer cell: IMDM culture medium+10% fetal bovine serum+100 U/mL penicillin and 100 μg/mL streptomycin+2 mM glutamine.
Cells were cultured and passaged. Tumor cells in exponential growth phase were used for in vivo tumor seeding. The cells were seeded subcutaneously to right lateral thorax of female BALB/c nude mouse. When tumor grew to a volume of about 150 mm^3, the animals were grouped and administered with a drug. Compound 1 was orally administrated once a day at an amount of 100 mg/kg, for 21 days. The volume of the drug for administration is 0.1 mL/10 g according to animal's body weight.
Tumor volume was measured with vernier calipers twice a week by measuring the major diameter and the minor diameter. The tumor volume is calculated by the following formula: volume=0.5×(major diameter)×[…]. The relative tumor volume (RTV) and the proliferation ratio (T/C) were calculated according to the result of measurement. RTV=Vt/V0, wherein Vt is the average tumor volume on the t day after grouping, and V0 is the average tumor volume on the day of grouping. T/C=RTV of treatment group/RTV of solvent control group×100%.
SPSS statistical software was used for T test on the 2 groups of independent samples, and for group statistical analysis of tumor volumes. p<0.05 was regarded as having significant difference.

CCN1CCN(Cc2cnc(Nc3cc(-c4cc(F)c5nc(C)n(C(C)C)c5c4)c(F)cn3)nc2)CC1 [Compound 1, 5-((4-ethylpiperazin-1-yl)methyl)-N-(5-fluoro-4-(4-fluoro-1-isopropyl-2-methyl-1H-benzo[d]imidazol-6-yl)pyridin-2-yl)pyrimidin-2-amine]
T/C (proliferation ratio) [1]: 31.74%
Tumor volume after administration ([1]; average ± standard error): 199.22 ± 33.76 mm^3
Tumor volume before administration ([1]; average ± standard error): 164.8 ± 10.35 mm^3
IC50 [2]: 16 nM
T/C [3]: 31.5%
TGI (inhibition ratio of tumor growth) [3]: 68.5%
Tumor volume after administration ([3]; average ± standard error): 368 ± 48 mm^3
Tumor volume before administration ([3]; average ± standard error): 150 ± 12 mm^3
